Measured values taken from paper PMC10746543, “Design principles for cyclin K molecular glue degraders” (Nature Chemical Biology, 2023).
Where “and” joins values, the source holds several entries; their conditions need not be identical. Equal values may be shown once. Read-outs that look alike come from different tables or passages of the source.

Tests used:
CDK2–cyclin A = target: T1, CDK2–cyclin A (Homo sapiens, UniProt P24941); test: Lanthascreen kinase binding assay, CDK2; settings: for Lanthascreen signal, sheet CDK2: raw replicates
T1 construct: purchased Thermo Fisher
Experimental: Lanthascreen experiments were performed using commercially available reagents (Thermo Fisher) and according to the manufacturer’s instructions.

CDK12–cyclin K and DDB1 = target: T2, CDK12–cyclin K and DDB1 (Homo sapiens, UniProt Q16531+Q9NYV4, K965R); test: TR-FRET ternary complex formation assay (compound titration); type: binding
T2 construct: His6–CDK12 (a.a. 713–1,052); full-length or beta-propeller B domain deletion (ΔBPB: a.a. 396–705 deleted) constructs of His6–DDB1ΔBPB, StrepII–Avi–DDB1, or His6–Spy–DDB1; made in house; host or cells: Trichoplusia ni High Five insect cells (baculovirus)
T2 sequence (Q9NYV4 713-1052 K965R): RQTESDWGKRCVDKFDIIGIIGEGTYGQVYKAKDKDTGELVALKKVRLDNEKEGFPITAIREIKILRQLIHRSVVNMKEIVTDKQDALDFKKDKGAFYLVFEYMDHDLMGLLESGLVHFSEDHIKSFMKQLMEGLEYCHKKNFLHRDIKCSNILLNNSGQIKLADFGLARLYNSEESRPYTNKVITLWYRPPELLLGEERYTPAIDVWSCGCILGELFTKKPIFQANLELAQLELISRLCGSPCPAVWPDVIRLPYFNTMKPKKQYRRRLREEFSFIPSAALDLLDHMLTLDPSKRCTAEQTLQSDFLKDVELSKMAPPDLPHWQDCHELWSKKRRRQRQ
T2 sequence (O75909 1-267 partner): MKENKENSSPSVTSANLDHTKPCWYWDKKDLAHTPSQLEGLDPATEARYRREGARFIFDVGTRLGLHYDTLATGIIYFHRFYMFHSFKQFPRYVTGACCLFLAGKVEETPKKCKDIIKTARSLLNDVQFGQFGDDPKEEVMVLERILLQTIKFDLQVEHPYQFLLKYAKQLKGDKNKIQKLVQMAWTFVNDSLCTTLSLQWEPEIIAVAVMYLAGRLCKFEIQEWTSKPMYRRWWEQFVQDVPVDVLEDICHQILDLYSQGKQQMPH
T2 sequence (Q16531 whole entry): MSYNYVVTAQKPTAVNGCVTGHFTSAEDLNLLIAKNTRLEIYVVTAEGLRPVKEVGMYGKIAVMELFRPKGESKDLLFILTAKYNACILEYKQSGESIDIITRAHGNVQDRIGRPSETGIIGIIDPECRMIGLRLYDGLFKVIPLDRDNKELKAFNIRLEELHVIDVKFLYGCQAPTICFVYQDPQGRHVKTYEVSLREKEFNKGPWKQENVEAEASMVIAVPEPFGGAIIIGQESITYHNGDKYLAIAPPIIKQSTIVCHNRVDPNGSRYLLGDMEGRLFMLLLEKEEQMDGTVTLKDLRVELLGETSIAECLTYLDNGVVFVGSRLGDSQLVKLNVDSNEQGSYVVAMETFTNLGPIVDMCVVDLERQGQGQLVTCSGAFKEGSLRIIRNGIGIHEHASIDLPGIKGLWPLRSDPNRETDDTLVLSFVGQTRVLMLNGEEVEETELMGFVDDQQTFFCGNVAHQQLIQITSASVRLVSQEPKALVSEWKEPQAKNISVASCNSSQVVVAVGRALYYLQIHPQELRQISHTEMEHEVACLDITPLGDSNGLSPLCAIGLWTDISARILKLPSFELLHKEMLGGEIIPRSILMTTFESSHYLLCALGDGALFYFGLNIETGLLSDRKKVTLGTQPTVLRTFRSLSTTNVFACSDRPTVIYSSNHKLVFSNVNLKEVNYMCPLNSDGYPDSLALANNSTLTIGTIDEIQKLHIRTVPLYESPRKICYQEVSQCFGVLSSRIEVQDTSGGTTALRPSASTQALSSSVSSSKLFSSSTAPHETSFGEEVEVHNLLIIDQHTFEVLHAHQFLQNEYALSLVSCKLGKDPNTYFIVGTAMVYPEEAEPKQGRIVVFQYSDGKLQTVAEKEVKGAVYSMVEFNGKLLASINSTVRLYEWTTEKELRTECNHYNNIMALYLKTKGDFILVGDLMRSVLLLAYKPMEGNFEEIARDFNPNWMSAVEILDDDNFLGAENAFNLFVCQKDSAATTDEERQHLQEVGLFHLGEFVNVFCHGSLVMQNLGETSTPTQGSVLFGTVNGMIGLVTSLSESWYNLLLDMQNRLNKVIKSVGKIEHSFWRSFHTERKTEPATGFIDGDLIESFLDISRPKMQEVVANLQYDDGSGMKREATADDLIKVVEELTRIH
Procedure, shortened: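 Delayed (70 μs) time-resolved read; FRET computed as 520 nm over 490 nm emission.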

[1] = Compound 0.038147 nM, experiment r13-r23
[2] = Compound 0.152588 nM, experiment r13-r23
[3] = Compound 0.610352 nM, experiment r13-r23
[4] = Compound 1.02544 nM, experiment r1-r11
[5] = Compound 3.15521 nM, experiment r1-r11
[6] = Compound 9.46563 nM, experiment r1-r11
[7] = Compound 9.76563 nM, experiment r13-r23
[8] = Compound 31.5521 nM, experiment r1-r11
[9] = Compound 39.0625 nM, experiment r13-r23
[10] = Compound 99.3891 nM, experiment r1-r11
[11] = Compound 156.25 nM, experiment r13-r23
[12] = Compound 315.521 nM, experiment r1-r11
[13] = Compound 625 nM, experiment r13-r23
[14] = Compound 2500 nM, experiment r13-r23
[15] = Compound 3155.21 nM, experiment r1-r11
[16] = Compound 10000 nM, experiment r13-r23
[17] = Compound 10002 nM, experiment r1-r11
[18] = Lanthascreen, average, Extended Data Fig. 8, read-out: CDK2 IC50
[19] = Supplementary Table 2, read-out: Lanthascreen IC50 [nM] CDK2
[20] = compound concentration 0.468 nM
[21] = compound concentration 7.92001 nM
[22] = compound concentration 15.84 nM
[23] = compound concentration 30.96 nM
[24] = compound concentration 62.6401 nM
[25] = compound concentration 79.2001 nM
[26] = compound concentration 125.28 nM
[27] = compound concentration 158.4 nM
[28] = compound concentration 244.8 nM
[29] = compound concentration 309.6 nM
[30] = compound concentration 626.401 nM
[31] = compound concentration 993.601 nM
[32] = compound concentration 1252.8 nM
[33] = compound concentration 2001.6 nM
[34] = compound concentration 9936.01 nM
[35] = compound concentration 20016 nM
[36] = in vitro complex formation, 50 nM CDK12–cyclin K, 100 nM DDB1, text and figures, read-out: TR-FRET EC50
[37] = sheet MOESM7, read-out: log TR-FRET EC50 (converted)

O=C(CSc1nc2ccccc2[nH]1)Nc1ccc(Cl)cn1 [dCeMM3]
Lanthascreen signal, sheet CDK2 (CDK2–cyclin A; [1]): 0.01285 and 0.01289 | Lanthascreen signal, sheet CDK2 (CDK2–cyclin A; [2]): 0.01318 and 0.01321 | Lanthascreen signal, sheet CDK2 (CDK2–cyclin A; [3]): 0.01258 and 0.01278 | Lanthascreen signal, sheet CDK2 (CDK2–cyclin A; [4]): 0.008366 and 0.009193 | Lanthascreen signal, sheet CDK2 (CDK2–cyclin A; [5]): 0.01197 and 0.009076 | Lanthascreen signal, sheet CDK2 (CDK2–cyclin A; [6]): 0.01142 and 0.01118 | Lanthascreen signal, sheet CDK2 (CDK2–cyclin A; [7]): 0.01261 and 0.01356 | Lanthascreen signal, sheet CDK2 (CDK2–cyclin A; [8]): 0.01118 and 0.009287 | Lanthascreen signal, sheet CDK2 (CDK2–cyclin A; [9]): 0.01377 and 0.01313 | Lanthascreen signal, sheet CDK2 (CDK2–cyclin A; [10]): 0.01102 and 0.008633 | Lanthascreen signal, sheet CDK2 (CDK2–cyclin A; [11]): 0.01301 and 0.01263 | Lanthascreen signal, sheet CDK2 (CDK2–cyclin A; [12]): 0.01039 and 0.01098 | Lanthascreen signal, sheet CDK2 (CDK2–cyclin A; [13]): 0.01331 and 0.01224 | Lanthascreen signal, sheet CDK2 (CDK2–cyclin A; [14]): 0.0123 and 0.01244 | Lanthascreen signal, sheet CDK2 (CDK2–cyclin A; [15]): 0.0101 and 0.009174 | Lanthascreen signal, sheet CDK2 (CDK2–cyclin A; [16]): 0.01049 and 0.00891 | Lanthascreen signal, sheet CDK2 (CDK2–cyclin A; [17]): 0.008182 and 0.007001 | IC50 (CDK2–cyclin A; [18]): > 10000 nM | IC50 (CDK2–cyclin A; [19]): > 10000 nM | EC50 (CDK12–cyclin K and DDB1; Supplementary Table 2, read-out: TR-FRET EC50 TR-FRET): 263 nM | TR-FRET signal (CDK12–cyclin K and DDB1; [20]): 0.3108 and 0.3043 | TR-FRET signal (CDK12–cyclin K and DDB1; compound concentration 2.16 nM): 0.3247 and 0.3252 | TR-FRET signal (CDK12–cyclin K and DDB1; compound concentration 3.6 nM): 0.3605 and 0.3572 | TR-FRET signal (CDK12–cyclin K and DDB1; compound concentration 4.68 nM): 0.1862 and 0.1908 | TR-FRET signal (CDK12–cyclin K and DDB1; [21]): 0.4123 and 0.4112 | TR-FRET signal (CDK12–cyclin K and DDB1; [22]): 0.5374 and 0.5369 | TR-FRET signal (CDK12–cyclin K and DDB1; compound concentration 21.6 nM): 0.3061 and 0.3287 | TR-FRET signal (CDK12–cyclin K and DDB1; [23]): 0.7082 and 0.7121 | TR-FRET signal (CDK12–cyclin K and DDB1; compound concentration 36 nM): 0.5639 and 0.6148 | TR-FRET signal (CDK12–cyclin K and DDB1; [24]): 1.02 and 1.082 | TR-FRET signal (CDK12–cyclin K and DDB1; [25]): 0.9671 and 1.036 | TR-FRET signal (CDK12–cyclin K and DDB1; [26]): 1.467 and 1.538 | TR-FRET signal (CDK12–cyclin K and DDB1; [27]): 1.482 and 1.527 | TR-FRET signal (CDK12–cyclin K and DDB1; [28]): 2.062 and 2.196 | TR-FRET signal (CDK12–cyclin K and DDB1; [29]): 2.068 and 2.079 | TR-FRET signal (CDK12–cyclin K and DDB1; [30]): 2.602 and 2.623 | TR-FRET signal (CDK12–cyclin K and DDB1; [31]): 3.096 and 3.149 | TR-FRET signal (CDK12–cyclin K and DDB1; [32]): 3.107 and 3.1711 | TR-FRET signal (CDK12–cyclin K and DDB1; [33]): 3.3098 and 3.397 | TR-FRET signal (CDK12–cyclin K and DDB1; compound concentration 2448 nM): 3.437 and 3.468 | TR-FRET signal (CDK12–cyclin K and DDB1; [34]): 3.722 and 3.727 | TR-FRET signal (CDK12–cyclin K and DDB1; [35]): 3.796 and 3.749 | EC50 (CDK12–cyclin K and DDB1; [36]): 263 ± 13 nM | EC50 (CDK12–cyclin K and DDB1; [37]): 263 nM

O=C(CSc1nnc2c(n1)[nH]c1ccccc12)Nc1ccc(Cl)cn1 [dCeMM2]
Lanthascreen signal, sheet CDK2 (CDK2–cyclin A; [1]): 0.01324 and 0.0125 | Lanthascreen signal, sheet CDK2 (CDK2–cyclin A; [2]): 0.01322 and 0.0127 | Lanthascreen signal, sheet CDK2 (CDK2–cyclin A; [3]): 0.01294 and 0.01324 | Lanthascreen signal, sheet CDK2 (CDK2–cyclin A; [4]): 0.01157 and 0.009543 | Lanthascreen signal, sheet CDK2 (CDK2–cyclin A; [5]): 0.01134 and 0.008854 | Lanthascreen signal, sheet CDK2 (CDK2–cyclin A; [6]): 0.008629 and 0.01226 | Lanthascreen signal, sheet CDK2 (CDK2–cyclin A; [7]): 0.01333 and 0.01313 | Lanthascreen signal, sheet CDK2 (CDK2–cyclin A; [8]): 0.009538 and 0.01114 | Lanthascreen signal, sheet CDK2 (CDK2–cyclin A; [9]): 0.01348 and 0.0134 | Lanthascreen signal, sheet CDK2 (CDK2–cyclin A; [10]): 0.01108 and 0.01101 | Lanthascreen signal, sheet CDK2 (CDK2–cyclin A; [11]): 0.01287 and 0.01355 | Lanthascreen signal, sheet CDK2 (CDK2–cyclin A; [12]): 0.0103 and 0.01153 | Lanthascreen signal, sheet CDK2 (CDK2–cyclin A; [13]): 0.01294 and 0.01314 | Lanthascreen signal, sheet CDK2 (CDK2–cyclin A; [14]): 0.01073 and 0.0108 | Lanthascreen signal, sheet CDK2 (CDK2–cyclin A; [15]): 0.01038 and 0.01039 | Lanthascreen signal, sheet CDK2 (CDK2–cyclin A; [16]): 0.01123 and 0.01202 | Lanthascreen signal, sheet CDK2 (CDK2–cyclin A; [17]): 0.01161 and 0.009572 | IC50 (CDK2–cyclin A; [18]): > 10000 nM | IC50 (CDK2–cyclin A; [19]): > 10000 nM | TR-FRET signal (CDK12–cyclin K and DDB1; [20]): 0.3316 and 0.3176 | TR-FRET signal (CDK12–cyclin K and DDB1; compound concentration 2.16 nM): 0.3609 and 0.3684 | TR-FRET signal (CDK12–cyclin K and DDB1; compound concentration 3.6 nM): 0.446 and 0.4561 | TR-FRET signal (CDK12–cyclin K and DDB1; compound concentration 4.68 nM): 0.2526 and 0.2575 | TR-FRET signal (CDK12–cyclin K and DDB1; [21]): 0.6045 and 0.6093 | TR-FRET signal (CDK12–cyclin K and DDB1; [22]): 0.8627 and 0.8782 | TR-FRET signal (CDK12–cyclin K and DDB1; compound concentration 21.6 nM): 0.6074 and 0.6249 | TR-FRET signal (CDK12–cyclin K and DDB1; [23]): 1.396 and 1.344 | TR-FRET signal (CDK12–cyclin K and DDB1; compound concentration 36 nM): 1.231 and 1.287 | TR-FRET signal (CDK12–cyclin K and DDB1; [24]): 1.902 and 1.956 | TR-FRET signal (CDK12–cyclin K and DDB1; [25]): 2.008 and 2.099 | TR-FRET signal (CDK12–cyclin K and DDB1; [26]): 2.531 and 2.559 | TR-FRET signal (CDK12–cyclin K and DDB1; [27]): 2.698 and 2.725 | TR-FRET signal (CDK12–cyclin K and DDB1; [28]): 3.133 and 3.085 | TR-FRET signal (CDK12–cyclin K and DDB1; [29]): 3.151 and 3.239 | TR-FRET signal (CDK12–cyclin K and DDB1; [30]): 3.549 and 3.629 | TR-FRET signal (CDK12–cyclin K and DDB1; [31]): 3.858 and 3.701 | TR-FRET signal (CDK12–cyclin K and DDB1; [32]): 3.752 and 3.846 | TR-FRET signal (CDK12–cyclin K and DDB1; [33]): 3.973 and 3.947 | TR-FRET signal (CDK12–cyclin K and DDB1; compound concentration 2448 nM): 3.918 and 3.967 | TR-FRET signal (CDK12–cyclin K and DDB1; [34]): 3.896 and 3.914 | TR-FRET signal (CDK12–cyclin K and DDB1; [35]): 3.769 and 3.757 | EC50 (CDK12–cyclin K and DDB1; [36]): 83 ± 4 nM | EC50 (CDK12–cyclin K and DDB1; [37]): 83.2 nM | EC50 (CDK12–cyclin K and DDB1; source data sheet correlations, read-out: TR-FRET EC50): 83.2 nM
